Experimental data published in patent publication US11458132B2, “Quinolin-2(1H)-one inhibitors of Late SV40 Factor” (TRUSTEES OF BOSTON UNIVERSITY, priority 2020, dated 2022).

What was measured:
RPE cells [1] = test: Cell motility tracking; format: cell-based; details: thymidine block, 4 μM FQI1; not statistically significant
Method: (§1) Cell motility tracking: After overnight seeding in high μ-dishes, cells were synchronized by incubating in 2 mM thymidine for 18-20 hours. Thereafter, cells were treated with 4 μM FQI1 or vehicle (0.01% DMSO) for 1 hour, followed by a 10-min incubation in NucSpot® Live 650 dye (Biotium, 40082) following the manufacturer's instructions. Subsequently, cells were imaged every 2 minutes for 2 hours in an environmental chamber of a Nikon C2 Si microscope at 37° C. and 5% CO2 at 20× magnification. Cells that underwent mitosis during the 2-hour period were excluded from the analysis. Using ImageJ, individual nuclei were monitored using the Manual Tracking tool and the distances between starting and end points were integrated into swarmplots using Python's seaborn library.

RPE cells [2] = test: Cell spreading area and circularity by microscopy; format: cell-based
Method: Cells were washed as before, treated with Phalloidin-iFluor 488 Reagent (abcam, ab176753) for 1 hour in 1-5% BSA in PBS, followed by Hoechst 33342 (Thermo Fisher Scientific, H3570) for 5 minutes. Mounting medium (Fisher Scientific, P10144) and cover slips were applied onto dried cells. Individually discernible cells were imaged on an Olympus Fluoview 10i. Using ImageJ, the phalloidin channel was thresholded and area and circularity values were measured and integrated into swarmplots using Python's seaborn library.

RPE cells [3] = test: Cell cycle analysis by flow cytometry at end of wound healing; format: cell-based; details: 4 μM FQI1, 12-hour time-point
Method: (§2) Cell cycle analysis by flow cytometry: After trypsinization, subsequent steps prior to staining were performed at 4° C. Cells in PBS were transferred dropwise into ethanol (final concentration of 70%) for overnight incubation. Fixed cells were washed with PBS and then incubated in 50 μg/ml propidium iodide and 10 μg/ml RNase A in PBS for 45 minutes at room temperature. After passage through a cell strainer, cell fluorescence was measured using a Becton Dickinson FACSCalibur. Ten thousand events were counted per sample. Histogram plots were generated using FlowJo.
All the samples, including a “0 hour” synchronized and an asynchronous sample, were harvested and prepared for flow cytometry, as described above. The proportion of cells in their respective cell cycle phases was determined by applying the Dean-Jett-Fox model in the FlowJo Cell Cycle analysis tool.

FH-B cells [4] = test: Cell cycle analysis by flow cytometry; format: cell-based, human; details: asynchronous FH-B cells, 4 μM FQI1, 1 hour
Method: as §2

FH-B cells [5] = test: Cell motility tracking; format: cell-based, human; details: thymidine block, 4 μM FQI1
Method: as §1

FH-B cells [6] = test: Microtubule sedimentation assay; format: cell-based, human
Method: Cell lysate preparation: For microtubule sedimentation assays, cells were treated as indicated in the figure legends, washed with PBS and incubated in 250 μl of microtubule sedimentation assay lysis buffer (100 mM PIPES pH 6.8, 2 M glycerol, 2 mM EGTA, 5 mM MgCl2, 0.1% Triton X-100) supplemented with 1 μM taxol, protease inhibitor cocktail (1:200, Abcam, ab201111) and phosphatase inhibitor cocktail (1:100, Abcam, ab201115) for 20 minutes at 37° C. Two hundred μl of scraped lysate was centrifuged at 21,000×g for 10 minutes at room temperature. Supernatants were saved as soluble fractions. Pellets were resuspended in 200 μl RIPA buffer (50 mM Tris HCl pH 8.0, 150 mM NaCl, 1% IGEPAL CA630, 0.05% deoxycholic acid) supplemented with 1.05% SDS, protease inhibitor cocktail (1:200) and phosphatase inhibitor cocktail (1:100) and incubated at 100° C. for 15 minutes. Pellet suspensions were centrifuged as before and supernatants were saved as pellet fractions.
Gel electrophoresis and immunoblotting: Microtubule sedimentation fractions and MLC2 analysis samples were separated by electrophoresis through tris-glycine and tricine polyacrylamide gels, respectively, which were transferred to PVDF membranes. Membranes with microtubule sedimentation fractions and MLC2 analysis samples were blocked in 5% milk in TBST and in 5% BSA in TBST, respectively. After overnight incubation with primary antibody at 4° C., the membranes were washed and incubated with secondary antibody for 1 hour at room temperature. Primary antibodies included anti-α-tubulin (1:2,000, Thermo Fisher Scientific, PA529444), anti-acetylated tubulin (1:1,000, Sigma-Aldrich, T7451), anti-phospho MYL9 (1:200, Thermo Fisher Scientific, PA517727), and anti-β-actin (1:5,000, Sigma-Aldrich, A1978). Secondary antibodies included Goat anti-Rabbit HRP (Thermo Fisher Scientific, 31460; 1:10,000 for anti-α-tubulin; 1:5,000 for anti-phospho MYL9), and Goat anti-Mouse HRP (Thermo Fisher Scientific, 62-6520; 1:5,000 for anti-acetylated tubulin; 1:10,000-1:20,000 for anti-β-actin). Membranes were placed into Pierce™ ECL Western Blotting Substrate (Thermo Fisher Scientific, 32106). Autoradiography film was exposed to each membrane for various times to ensure acquisition of non-saturated exposures. Band intensities were quantified from scanned films by densitometry using ImageJ.

[7] = test system: Wnt signaling in HCT-116 cells; test: Wnt signaling assay (β-catenin-responsive luciferase reporter); format: cell-based; details: overnight
Method: Wnt signaling assay: The CRC cells stably expressing β-catenin-responsive promoter tethered to a luciferase reporter (pBARLS) or a mutant construct (pfuBARLS), as described previously, were seeded in 96-well plates. After 48 h of transfection, luciferase assays was performed using the Dual-Luciferase Kit (Promega) and normalized using protein content determined by the Bradford assay (Bio-Rad) as described previously^26-28.

Huh7 cells = test: Growth inhibition curves in Huh7 cells; format: cell-based; details: Homo sapiens, Huh-7
colorectal cancer tumor = test: Colorectal cancer tumor size and tumor tissue, FIGS. 22-24; format: in vivo, mouse; details: 15 mg/kg treatment compared with the other concentration
[8] = Plasma protein binding (PPB), mouse; format: in vitro ADME

Structure (SMILES) | cell displacement over a 2-hour period (RPE cells [1]) | cell spreading area (RPE cells [2]; 4 μM FQI1, 1 hour) | circularity (RPE cells [2]; 4 μM FQI1 or 1 μM nocodazole, 1 hour) | cells with a 4n DNA content (RPE cells [3]) | cell cycle phases by cellular DNA profiling (FH-B cells [4]) | cell displacement over a 2-hour period (FH-B cells [5]) | time after addition at which a drop in pelleted tubulin is observed (FH-B cells [6]; 4 μM FQI1) | microtubule stability and α-tubulin acetylation in the microtubule fraction (FH-B cells [6]; 4 μM FQI1 (15- and 30-minute pellets), 1 μM nocodazole or taxol 30 minutes) | Wnt activity at baseline ([7]; 0.1 μM up to 20 μM) | concentrations that suppressed Wnt activity induced by lithium chloride [7] | GI50 (Huh7 cells) | effectiveness on colorectal cancer tumor size versus time (colorectal cancer tumor) | fraction unbound [8]
CCOc1ccccc1C1CC(=O)Nc2cc3c(cc21)OCO3 (stereo not shown) [FQI1, 8-(2-ethoxyphenyl)-7,8-dihydro-[1,3]dioxolo[4,5-g]quinolin-6(5H)-one] | clear trend towards motility being reduced | did not respond to FQI1 with significant change in cell spreading area | significantly more circular in shape | ~30% | no apparent shift in cell cycle phases | significantly smaller range of motion | 1 min | increase in the amount of acetylated α-tubulin in the microtubule fraction |  |  |  |  | 
CCOc1cc(N(C)C)ccc1-c1cc(=O)[nH]c2cc3c(cc12)OCO3 [FQI2-34, 8-(4-(dimethylamino)-2-ethoxyphenyl)-[1,3]dioxolo[4,5-g]quinolin-6(5H)-one] |  |  |  |  |  |  |  |  | inhibited Wnt activity in a monotonically decreasing manner | ≥ 0.1 µM | 22.2 nM | not as effective | 0.07
